Data published in patent US10426775B2, “Methods for treating Friedreich's ataxia with etravirine” (Fratagene Therapeutics srl, priority 2017, dated 2019).

Tests used:
Format in all cases: cell-based, human
frataxin-deficient cells = experiment: Toxic effect and cell viability of etravirine-treated frataxin-deficient cells; settings: any of the tested doses
frataxin precursor = experiment: Western blot of frataxin in HEK293 Flp-In cells stably transfected with frataxin (HEK293-fxn)
Procedure: For the validation steps, etravirine (TMC125) was purchased from Selleckchem and was dissolved in DMSO at a stock concentration of 10 mM. HEK-293 Flp-In cells, stably overexpressing frataxin, were treated with the drug (or only DMSO) for 24 hours at final concentration of 10 μM. FRDA cells were treated with different concentration of etravirine. For all drug (and no drug) treatments, the final concentration of DMSO in the cell culture medium was 0.1%.
(§1) Total cell extracts were prepared in lysis buffer (50 mM Tris-HCl, pH 7.5, 150 mM NaCl, 1% Igepal CA-630, 5 mM EDTA, 5 mM EGTA) supplemented with complete protease inhibitor cocktail (Roche Diagnostics, Indianapolis, Ind., USA). […] The immunoreactive bands were detected by ECL (GE Healthcare, Chalfont St. Giles, UK) and imaged with a ChemiDoc XRS system (Bio-Rad). […] All values are expressed as means±1 S.E.M.
The identified candidate drugs were individually validated for their ability to promote frataxin accumulation in different cell types. […] Protein extracts from the cell lines were resolved on SDS-PAGE and analyzed by western blot with anti-frataxin antibody and anti-tubulin as a loading control. […]
HEK 293-fxn stably expressing frataxin (A), HEK 293 (B), or FRDA lymphoblast cell line GM16203 (C) were treated with 10 μM etravirine for the indicated time points. Protein extracts were resolved on SDS-PAGE and analyzed by western blot with anti-frataxin antibody and anti-tubulin as a loading control. […] Quantitative analysis of newly-synthesized FXN mRNA was performed by metabolic labeling of nascent RNA using the Click-iT Nascent RNA Capture Kit (Life Technologies), followed by biotin conjugation and isolation with streptavidin beads, according to provider instructions. Nascent frataxin transcripts levels were quantitated by real-time PCR relative to the expression of the control genes ACTB, GUSB and ATP5J. […] Relative levels of total frataxin mRNA were measured by real-time PCR and normalized on expression levels of three control genes ATP5J, GUSB and ACTB using the ΔΔCt method. […]

mature frataxin = experiment: Western blot of frataxin in primary fibroblasts derived from FRDA patients; settings: 300 nM etravirine, 24 hours
Procedure: Lymphoblastoid cell lines from one healthy subject [GM16215] and 7 FRDA patients [GM16228, GM16203, GM16214, GM16223, GM16210, GM16205, GM16216], and primary fibroblasts from 2 FRDA patients [GM02816 and GM04078], were obtained from NIGMS Human Genetic Cell Repository, Coriell Institute for Medical Research (Camden, N.J., USA). Lymphoblasts and fibroblasts were grown at 37° C. and 5% CO2 and were respectively cultured in RPMI or DMEM, supplemented with 15% FBS, […] penicillin/streptomycin and 2 mM L-glutamine.
For the validation steps, etravirine (TMC125) was purchased from Selleckchem and was dissolved in DMSO at a stock concentration of 10 mM. […]
as §1
We chose the minimal effective dose (300 nM) to evaluate the efficacy of etravirine over a broad range of cells derived from FRDA patients. In particular, we analysed 7 lymphoblastoid cell lines derived from FRDA patients and primary fibroblasts derived from two different FRDA patients. […]

Cc1cc(C#N)cc(C)c1Oc1nc(Nc2ccc(C#N)cc2)nc(N)c1Br [etravirine]
toxic effect on frataxin-deficient cells (frataxin-deficient cells): does not show any toxic effect | cell viability (frataxin-deficient cells; frataxin-deficient cells): does not affect cell viability | increase in frataxin precursor levels (densitometric ratio frataxin precursor/tubulin) (frataxin precursor; HEK293-fxn, 10 μM of each candidate drug, 24 h): striking upregulation | amount of frataxin precursor (frataxin precursor; HEK293-fxn, etravirine at 10 (μM), detectable after 4 hours, higher after 12 hours): rapid and robust increase | frataxin accumulation compared with MG132 treatment (frataxin precursor; etravirine vs general proteasome inhibitor MG132, cell system not stated): strikingly stronger | average fold increase in mature frataxin levels (mature frataxin; GM03816 fibroblasts (380 GAA repeats)): 1.65 fold | average fold increase in mature frataxin levels (mature frataxin; GM04078 fibroblasts (541 GAA repeats)): 1.71 fold
